Test systems include MDA-N; DLD-1; DMS-114; DMS-273; KM-20L2; M19-MEL; SNB-78; XF498; RXF 631.
Test in all cases: NCI-60 cell line screen, 48 h

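Protocol summary: plate cells (96-well), add compound at 5 concentrations, incubate 48 h, interpolate endpoints linearly. Abbreviation: GI50, concentration required for 50% inhibition of growth.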 Active and inactive are the calls of the source. Rule as the data show it: active = GI50 up to about 1.1 µM and inactive = higher.

Here are results for 55 molecules from ChEMBL document CHEMBL1201862, “PubChem BioAssay data set” (2004).

Turning to `C=CCC1C2CCC(O[Si](C(C)C)(C(C)C)C(C)C)(C(C(=O)OC)C2)C1O` (stereo unspecified), the GI50 in the experiment on MDA-N was > 100 µM (inactive).
Same read-out and setting: in the case of `COc1cc(C=O)ccc1Oc1nnnn1-c1ccccc1` it was 37.8 µM (inactive).
Turning to `O=c1cc(-c2ccccc2)oc2cc(OCCCOc3ccc4c(=O)cc(-c5ccccc5)oc4c3)ccc12`, the GI50 in the experiment with DLD-1, in the experiment on DMS-114, with DMS-273, in the experiment on KM-20L2, in the experiment with M19-MEL and with SNB-78 was > 100 µM (inactive) throughout. In the experiment with XF498, the GI50 was > 100 µM (inactive).
In the case of `COc1ccc(-c2c(C#N)c(-c3ccc(C)cc3)n(NS(=O)(=O)c3ccc(C)cc3)c(=O)c2C#N)cc1`, the GI50 with MDA-N was 75 µM (inactive).
On the same count and under the same terms, in the case of `COc1cc([N+](=O)[O-])c(S(=O)(=O)O)cc1N` it was > 100 µM (inactive); in that of `CC(C)(C)c1cc(S(=O)(=O)O)c2oc(-c3ccccc3)cc(=O)c2c1`, > 100 µM (inactive).
Still for that read-out and setting: in the case of `O=C(CN1CCCCC1)Nc1ccc2sc3ccccc3c(=O)c2n1` it was 13.4 µM (inactive); in that of `CCCC(=O)Oc1cc(OC(=O)CCC)c2c(C)cc(=O)oc2c1`, 62.2 µM (inactive).
Turning to `S=C(N/N=C(/c1ccccc1)c1ccccn1)N1CCCCCC1`, the GI50 in the experiment with MDA-N was < 0.044 µM (active).
Same read-out and setting: in the case of `Brc1ccc2c(-c3csc(-c4c[nH]c5cc(Br)ccc45)n3)c[nH]c2c1` it was 5.43 µM (inactive).
Still for that read-out and setting: to `CC(=O)OCC1OC(O[C@@H]2C[C@H]3C(C)(C)[C@@H](OC(C)=O)CC[C@]3(C)[C@H]3CC[C@]45C[C@]4(CC[C@H]5[C@@H](C)C[C@@H](O)[C@H](O)C(C)(C)F)[C@@]32C)C(O)C(O)C1O` (stereo partly specified) belongs 1.63 µM (inactive).
On the same count and under the same terms, to `CCOC(=O)n1c2ccccc2c2c(O)c(OC)c3c(c21)C(=O)NC3=O` belongs > 100 µM (inactive); to `CCOc1cc2c(cc1O)/C(=N\N)C[C@@H]1[C@@H]2CC[C@]2(C)[C@@H](O)CC[C@@H]12`, 0.261 µM (active).
With `Cc1cccc(CC(Cc2c(C)cccc2C(=O)O)C(=O)O)c1` (stereo unspecified), the GI50 with MDA-N was > 100 µM (inactive).
Same read-out and setting: in the case of `CSC(=S)N/N=C(\C)c1cccc(C)n1` it was 0.925 µM (active); in that of `Nc1ccc(S(=O)(=O)Nc2nc3ccccc3nc2N2CCCCCC2)cc1`, 32.5 µM (inactive); in that of `COc1cc(C(=O)C2C(=O)c3ccccc3C2C2(O)c3ccccc3CC2C(O)c2cc(OC)c(OC)c(OC)c2)cc(OC)c1OC` (stereo unspecified), > 100 µM (inactive).
For the molecule `CCCC/C(C)=N/NC(N)=S`, the GI50 with DLD-1, with DMS-114, in the experiment on KM-20L2, with M19-MEL and in the experiment on SNB-78 was > 100 µM (inactive) in each case.
For the molecule `COc1ccc(C(=O)N2CCc3c([nH]c4ccccc34)C2C(=O)O)o1` (stereo unspecified), the GI50 with MDA-N was > 10 µM (inactive).
Regarding `COc1cc2ccc1-c1cc(ccc1O)CC1c3cc4c(cc3CCN1C)Oc1c(OC)cc3c(c1O4)C(C2)N(C)CC3` (stereo unspecified), the GI50 in the experiment on DLD-1 was 2.28 µM (inactive); in the experiment with DMS-114, 2 µM (inactive); with DMS-273 it was 1.78 µM (inactive); in the experiment with KM-20L2, 1.46 µM (inactive); with M19-MEL, 1.88 µM (inactive); with SNB-78, 2.1 µM (inactive). Also, in the experiment with XF498, the GI50 was 1.92 µM (inactive).
On to `COc1ccc2[nH]c3c4c(ccc3c2c1)C(=O)C=CC4=O`, for which the GI50 with DLD-1 was 2.54 µM (inactive); with DMS-114 it was 11.8 µM (inactive); with DMS-273, 16.2 µM (inactive); in the experiment with KM-20L2, 18.9 µM (inactive); in the experiment with M19-MEL, 14.3 µM (inactive); with MDA-N it was 16.2 µM (inactive). The GI50 in the experiment with SNB-78 is 16.3 µM (inactive).
For `CC1(C)N=c2c(ncn2Cc2ccccc2)=C(C(N)=O)N1`, in the experiment on MDA-N, the GI50 was > 100 µM (inactive).
The same measure, in the same setting: in the case of `COc1cc2cc(C(=O)N3CC(CCl)c4c3cc(NC(=O)OCc3ccc([N+](=O)[O-])cc3)c3ccccc43)[nH]c2c(OC)c1OC` (stereo unspecified) it was > 100 µM (inactive); in that of `C1=Cc2cccc3occ(c23)C=C1`, > 100 µM (inactive).
With `Nc1cccc(C#Cc2cccc(C#Cc3cccc(N)n3)n2)n1`, in the experiment on MDA-N, the GI50 is 79.3 µM (inactive).
For `COc1ccc(/C(=N/O)C(c2ccc(OC)cc2)C2C(=O)Oc3ccccc32)cc1` (stereo unspecified), the GI50 with DLD-1 was 83.4 µM (inactive); in the experiment with DMS-114, 26.6 µM (inactive); in the experiment with M19-MEL, 68.5 µM (inactive); in the experiment with SNB-78, > 100 µM (inactive).
Consider `O=c1[nH]cnc2[nH]nnc12`, for which the GI50 in the experiment with DMS-114 was 8.02 µM (inactive); in the experiment on DMS-273, 6 µM (inactive); in the experiment with KM-20L2, 3.87 µM (inactive); in the experiment on M19-MEL, 4.02 µM (inactive); in the experiment on SNB-78, 6.3 µM (inactive); with XF498 it was 7.5 µM (inactive).
For the molecule `Nc1ccc(S(=O)(=O)c2ccc(NC(=O)c3cccnc3)cc2)cc1`, in the experiment on MDA-N, the GI50 is > 100 µM (inactive).
The same measure, in the same setting: to `Nc1ncnc2c1nnn2C1C=CC(CP(=O)(O)O)C1` (stereo unspecified) belongs > 100 µM (inactive).
With `C1=CC=C2NCCSCC/N=C3/C=CC=CC=C3NCCSCC/N=C\2C=C1`, the GI50 in the experiment with DLD-1, with DMS-114, in the experiment on DMS-273, in the experiment with KM-20L2, with M19-MEL and in the experiment with SNB-78 was > 100 µM (inactive) throughout.
Consider `N#CC(c1nc2ccccc2nc1Cl)S(=O)(=O)c1ccccc1` (stereo unspecified), for which the GI50 was > 100 µM (inactive) in the experiment with DLD-1; > 100 µM (inactive) in the experiment with DMS-114; > 100 µM (inactive) in the experiment with DMS-273; > 100 µM (inactive) in the experiment on KM-20L2; > 100 µM (inactive) in the experiment with M19-MEL; 25.8 µM (inactive) with SNB-78. In addition, in the experiment with XF498, the GI50 was 37.6 µM (inactive).
Consider `CC(=O)NC1=C(NC(C)(C)C)C(=O)c2ccccc2C1=O`, for which the GI50 in the experiment with DLD-1 was 15.9 µM (inactive); in the experiment with DMS-114 it was 20.6 µM (inactive); with DMS-273, 26.1 µM (inactive); with KM-20L2, 18.7 µM (inactive); in the experiment with M19-MEL, 15.4 µM (inactive); in the experiment on SNB-78, 31 µM (inactive). For the same molecule, the GI50 in the experiment on XF498 is 11.1 µM (inactive).
For the molecule `O=C1Nc2c(Cl)cccc2/C1=N/Nc1ccccc1[N+](=O)[O-]`, the GI50 in the experiment with MDA-N is 25.6 µM (inactive).
For `O=C(/C=C/NC(=O)OCc1ccccc1)OCc1ccccc1`, the GI50 with MDA-N was > 100 µM (inactive).
Still for that read-out and setting: to `N#Cc1cnn2ccn(C3OC(COC(=O)c4ccccc4)C(OC(=O)c4ccccc4)C3OC(=O)c3ccccc3)c12` (stereo unspecified) belongs > 21.5 µM (inactive); to `CCOc1c(OC)cc(CNNc2nccs2)cc1OC`, > 100 µM (inactive).
Same read-out and setting: in the case of `N/C(=N\N=C\c1cc2ccccc2s1)c1cnccn1` it was > 100 µM (inactive); in that of `CC(C)[Si](OC1=C(C(=O)N(C)c2cccc(Cl)c2)CCCC1)(C(C)C)C(C)C`, 17.4 µM (inactive); in that of `Cn1cnc(N2CCCC2)c(C#N)c1=S`, > 100 µM (inactive).
Turning to `NC1=NS(=O)(=O)Nc2nc(-c3ccc([N+](=O)[O-])o3)[nH]c21`, the GI50 with DLD-1 was 15.8 µM (inactive); in the experiment with DMS-114, 14.2 µM (inactive); in the experiment on DMS-273 it was 21.4 µM (inactive); in the experiment on KM-20L2, 23.1 µM (inactive); in the experiment with M19-MEL, 16.6 µM (inactive).
On to `COc1cc(OC)c([C@@H]2OC(=O)C3C2C(=O)O[C@H]3c2cc(OC)c(OC)cc2OC)cc1OC` (stereo partly specified), for which the GI50 was > 100 µM (inactive) in the experiment with DLD-1; 72.4 µM (inactive) in the experiment with DMS-114; > 100 µM (inactive) with DMS-273; > 100 µM (inactive) in the experiment on KM-20L2; 70.1 µM (inactive) in the experiment with M19-MEL; > 100 µM (inactive) in the experiment with SNB-78. Further, the GI50 in the experiment on XF498 is > 100 µM (inactive).
Consider `COc1cc(C2c3cc4c(cc3OC(NCc3ccccc3)C2C)OCO4)cc(OC)c1OC` (stereo unspecified), for which the GI50 in the experiment on MDA-N is 0.0973 µM (active).
On the same count and under the same terms, in the case of `CCCCSCc1nc2nc(Cl)c(Cl)nc2[nH]1` it was 25.1 µM (inactive).
As to `CN(C)CC1(C)CC/C(=C\c2ccc(Cl)cc2)C1=O` (stereo unspecified), the GI50 is 29.2 µM (inactive) in the experiment with DLD-1; 22.6 µM (inactive) in the experiment with DMS-114; 20.7 µM (inactive) with DMS-273; 21.3 µM (inactive) with KM-20L2; 50.8 µM (inactive) in the experiment on M19-MEL; 40.8 µM (inactive) with SNB-78. In the experiment with XF498, the GI50 was 78.9 µM (inactive).
On to `O=S1(=O)OCCOS(=O)(=O)C1Cl`, for which the GI50 in the experiment on DLD-1, in the experiment with DMS-114, in the experiment with DMS-273, with M19-MEL and with SNB-78 was > 100 µM (inactive) each time.
For the molecule `C/C(=N\Nc1ccccc1)C(CN(C)C)C(c1ccccc1)c1c(O)c2ccccc2oc1=O` (stereo unspecified), the GI50 in the experiment with DMS-114, in the experiment on KM-20L2, in the experiment on M19-MEL, in the experiment with MDA-N and with RXF 631 was > 100 µM (inactive) in each case.
Regarding `COC(=O)CC(C(C(=O)OCc1ccccc1)C(C)O)N1C(=O)OCC1c1ccccc1` (stereo unspecified), the GI50 is 60.4 µM (inactive) in the experiment on DLD-1; 46.9 µM (inactive) in the experiment with DMS-114; 66.1 µM (inactive) in the experiment on DMS-273; 83.8 µM (inactive) with KM-20L2; 69.2 µM (inactive) in the experiment on M19-MEL; 24.1 µM (inactive) with XF498.
On to `CSc1nn(C)cc2ncnc1-2`, for which the GI50 in the experiment with MDA-N is > 100 µM (inactive).
In the case of `COc1ccc(CCCNC(=O)Cc2ccccc2CO)cc1OC`, in the experiment on MDA-N, the GI50 is > 100 µM (inactive).
As for `CCOC(=O)[C@@]12CCC(C1=O)[C@](C)(O)C[C@@H]2c1ccccc1`, in the experiment on MDA-N, the GI50 is 3.86 µM (inactive).
Regarding `Nc1ccc(-c2ncc3cc(-c4cccc(-c5cc6cnc(-c7ccc(N)cc7)nc6c6ccccc56)c4)c4ccccc4c3n2)cc1`, the GI50 in the experiment with MDA-N was > 100 µM (inactive).
As to `Nc1n[n+](-c2ccccc2)no1`, the GI50 in the experiment on DLD-1 was 5.7 µM (inactive); in the experiment on DMS-114 it was 18.3 µM (inactive); in the experiment with DMS-273 it was 33.2 µM (inactive); in the experiment with KM-20L2, 10.8 µM (inactive); in the experiment on M19-MEL, 46.2 µM (inactive); in the experiment with SNB-78, > 100 µM (inactive).
`Cc1nccn1S(=O)(=O)c1ccc(Cl)cc1`: the GI50 in the experiment on MDA-N is 22.2 µM (inactive).
Same read-out and setting: in the case of `C=C(C)CCC1CC=[N+]([O-])OC1C(C)(C)C` (stereo unspecified) it was 42.3 µM (inactive); in that of `CCN1CCC(O)(c2ccc([N+](=O)[O-])cc2)C(C(=O)c2ccc([N+](=O)[O-])cc2)C1` (stereo unspecified), 20.8 µM (inactive).
